Molecular target: T1, AT-III (Homo sapiens, UniProt P01008)
T1 construct: purchased Bayer Corp
Test: AT-III field-effect sensor binding (differential surface potential dose-response)
Settings: covalently immobilized biotinylated AT-III on the active sensor, BSA-passivated control sensor, dose-response curve FIG. 4B
From the text: In one embodiment, AT-III is used as a covalently immobilized surface receptor. In this embodiment, the present invention can monitor active heparin. FIG. 4A illustrates the surface immobilization chemistry according to this embodiment. The surface immobilization chemistry involves aldehyde-terminated silanization of the SiO2 surface, followed by the reductive amination of the aldehyde groups to the surface-exposed amino groups of avidin, blocking the unreacted sites by ethanolamine, and attachment of covalently-immobilized avidin to biotinylated AT-III. […] Upon deblocking, the resulting bAT-III remains fully active because the heparin-binding site remains intact and unhindered because the introduced biotin groups are positioned away from it. This immobilization strategy ensures full activity and the desired surface orientation of AT-III for maximizing the sensor performance. […] The selectivity of the AT-III sensor to heparin sequence was measured by examining the binding affinity to chondroitin sulfate, a negatively charged polysaccharide structurally related to heparin. […]
The surface potential of the filed sensitive region was determined by applying an AC signal (50 mV sine wave at 4 kHz) to the reference electrode and measuring the resulting current through the EIS structure with a current preamp (Keithley Model 428) and lock-in amplifier. […]

T1 sequence (P01008 33-464): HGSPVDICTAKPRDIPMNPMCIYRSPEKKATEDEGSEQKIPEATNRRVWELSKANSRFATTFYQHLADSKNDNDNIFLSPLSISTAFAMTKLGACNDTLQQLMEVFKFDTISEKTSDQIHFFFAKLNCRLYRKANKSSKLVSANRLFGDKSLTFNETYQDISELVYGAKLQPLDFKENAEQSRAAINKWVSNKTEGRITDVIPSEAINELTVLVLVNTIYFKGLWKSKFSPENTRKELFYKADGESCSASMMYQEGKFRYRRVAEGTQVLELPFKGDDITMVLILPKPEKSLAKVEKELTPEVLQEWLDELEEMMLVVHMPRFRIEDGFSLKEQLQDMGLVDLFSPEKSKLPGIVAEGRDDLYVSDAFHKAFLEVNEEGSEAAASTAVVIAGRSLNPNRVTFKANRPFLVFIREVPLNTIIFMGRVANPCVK

response of the AT-III sensor (binding affinity, selectivity versus heparin): neglible
Substance: chondroitin sulfate
